Measurements reported in US12599136B2, “Substituted isophthalic acid diamides and their use as herbicides” (Bayer Aktiengesellschaft, priority 2020, dated 2026).

Key:
Format in all cases: in vivo
Viola tricolor [1] = test: Post-emergence herbicidal action against VIOTR; conditions: 20 g/ha
How it was run: (§1)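 Herbicidal action is a visual percentage rating (0% = as untreated control, 100% = plants dead) made roughly 3 weeks after treatment. Plants were grown in sandy loam in the greenhouse and treated at the one-leaf stage, 2 to 3 weeks post-sowing. Treatment was a foliar spray of wettable-powder or emulsion-concentrate formulations at 600 to 800 l/ha water plus 0.2% wetting agent.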

Alopecurus myosuroides [2] = test: Pre-emergence herbicidal action against ALOMY; conditions: 80 g/ha; visual score after 3 weeks vs untreated controls
How it was run: (§2)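 Sandy loam pots, seeds covered with soil, then surface-treated with WP or EC formulations at 600–800 l/ha water plus 0.2% wetting agent. Greenhouse, 3 weeks. Percent damage vs untreated controls.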

Abutilon theophrasti [3] = test: Pre-emergence herbicidal action against ABUTH; conditions: visual score after 3 weeks vs untreated controls
How it was run: as §2

Veronica persica [4] = test: Pre-emergence herbicidal action against VERPE; conditions: 80 g/ha
How it was run: as §2

Viola tricolor [5] = test: Pre-emergence herbicidal action against VIOTR; conditions: 80 g/ha
How it was run: as §2

Avena fatua [6] = test: Pre-emergence herbicidal action against AVEFA; conditions: 80 g/ha; visual score after 3 weeks vs untreated controls
How it was run: as §2

Abutilon theophrasti [7] = test: Post-emergence herbicidal action against ABUTH
How it was run: as §1

Digitaria sanguinalis = test: Post-emergence herbicidal action against DIGSA
How it was run: as §1

Lolium rigidum = test: Pre-emergence herbicidal action against LOLRI; conditions: 80 g/ha
Text: Seeds of monocotyledonous and dicotyledonous weed plants and crop plants are laid out in sandy loam soil in wood-fiber pots and covered with soil. The compounds of the invention, formulated in the form of wettable powders (WP) or as emulsion concentrates (EC), are then applied to the surface of the covering soil in the form of an aqueous suspension or emulsion at a water application rate equivalent to 600 to 800 l/ha, with addition of 0.2% wetting agent. After the treatment, the pots are placed in a greenhouse and kept under good growth conditions for the trial plants. The damage to the test plants is scored visually after a test period of 3 weeks by comparison with untreated controls (herbicidal activity in percent (%): 100% activity=the plants have died, 0% activity=like control plants). […] The tables below illustrate, in an illustrative manner, the post-emergence herbicidal action of the compounds of the invention, the herbicidal activity being stated in percent.

Alopecurus myosuroides [8] = test: Post-emergence herbicidal action against ALOMY
How it was run: as §1

Amaranthus retroflexus [9] = test: Pre-emergence herbicidal action against AMARE; conditions: visual score after 3 weeks vs untreated controls
How it was run: as §2

Amaranthus retroflexus [10] = test: Post-emergence herbicidal action against AMARE; conditions: visual assessment about 3 weeks after treatment
How it was run: as §1

Matricaria inodora [11] = test: Post-emergence herbicidal action against MATIN; conditions: visual assessment about 3 weeks after treatment
How it was run: as §1

Setaria viridis [12] = test: Post-emergence herbicidal action against SETVI; conditions: visual assessment about 3 weeks after treatment
How it was run: as §1

Matricaria inodora [13] = test: Pre-emergence herbicidal action against MATIN; conditions: visual score after 3 weeks vs untreated controls
How it was run: as §2

Pharbitis purpurea = test: Post-emergence herbicidal action against PHBPU; conditions: visual assessment about 3 weeks after treatment
How it was run: as §1

Echinochloa crus-galli [14] = test: Pre-emergence herbicidal action against ECHCG; conditions: 80 g/ha; visual score after 3 weeks vs untreated controls
How it was run: as §2

Setaria viridis [15] = test: Pre-emergence herbicidal action against SETVI; conditions: 80 g/ha
How it was run: as §2

Echinochloa crus-galli [16] = test: Post-emergence herbicidal action against ECHCG; conditions: 20 g/ha, visual assessment about 3 weeks after treatment
How it was run: as §1

Veronica persica [17] = test: Post-emergence herbicidal action against VERPE; conditions: 20 g/ha, visual assessment about 3 weeks after treatment
How it was run: as §1

Avena fatua [18] = test: Post-emergence herbicidal action against AVEFA; conditions: 20 g/ha, visual assessment about 3 weeks after treatment
How it was run: as §1

Structure (SMILES): CCN(C)C(=O)c1c(C(F)F)ccc(C(=O)Nc2nnnn2CC)c1Cl [Example 2-155]
- Post-emergence action against VIOTR in % (Viola tricolor [1]): 80%
- Pre-emergence action against ALOMY (Alopecurus myosuroides [2]): 90%
- Pre-emergence action against ABUTH (Abutilon theophrasti [3]; 20 g/ha): 100%
- Pre-emergence action against ABUTH (Abutilon theophrasti [3]; 80 g/ha): 100%
- Pre-emergence action against VERPE (Veronica persica [4]): 90%
- Pre-emergence action against VIOTR (Viola tricolor [5]): 100%
- Pre-emergence action against AVEFA (Avena fatua [6]): 90%
- Post-emergence action against ABUTH (Abutilon theophrasti [7]; 5 g/ha): 80%
- Post-emergence action against ABUTH (Abutilon theophrasti [7]; 20 g/ha): 90%
- Post-emergence action against DIGSA in % (Digitaria sanguinalis; 5 g/ha): 80%
- Post-emergence action against DIGSA in % (Digitaria sanguinalis; 20 g/ha): 80%
- Pre-emergence action against LOLRI (Lolium rigidum): 90%
- Post-emergence action against ALOMY (Alopecurus myosuroides [8]; 20 g/ha): 90%
- Pre-emergence action against AMARE (Amaranthus retroflexus [9]; 20 g/ha): 100%
- Pre-emergence action against AMARE (Amaranthus retroflexus [9]; 80 g/ha): 100%
- Post-emergence action against AMARE in % (Amaranthus retroflexus [10]; 5 g/ha): 100%
- Post-emergence action against AMARE in % (Amaranthus retroflexus [10]; 20 g/ha): 100%
- Post-emergence action against MATIN in % (Matricaria inodora [11]; 5 g/ha): 80%
- Post-emergence action against MATIN in % (Matricaria inodora [11]; 20 g/ha): 90%
- Post-emergence action against SETVI in % (Setaria viridis [12]; 5 g/ha): 80%
- Post-emergence action against SETVI in % (Setaria viridis [12]; 20 g/ha): 100%
- Pre-emergence action against MATIN (Matricaria inodora [13]; 20 g/ha): 80%
- Pre-emergence action against MATIN (Matricaria inodora [13]; 80 g/ha): 100%
- Post-emergence action against PHBPU in % (Pharbitis purpurea; 5 g/ha): 80%
- Post-emergence action against PHBPU in % (Pharbitis purpurea; 20 g/ha): 80%
- Pre-emergence action against ECHCG (Echinochloa crus-galli [14]): 100%
- Pre-emergence action against SETVI (Setaria viridis [15]): 100%

Structure (SMILES): CCN(C)C(=O)c1c(C(F)F)ccc(C(=O)Nc2nnnn2C)c1Cl [Example 1-155]
- Post-emergence action against VIOTR in % (Viola tricolor [1]): 80%
- Pre-emergence action against ALOMY (Alopecurus myosuroides [2]): 90%
- Pre-emergence action against ABUTH (Abutilon theophrasti [3]; 20 g/ha): 100%
- Pre-emergence action against ABUTH (Abutilon theophrasti [3]; 80 g/ha): 100%
- Post-emergence action against ECHCG in % (Echinochloa crus-galli [16]): 90%
- Pre-emergence action against VERPE (Veronica persica [4]): 90%
- Pre-emergence action against VIOTR (Viola tricolor [5]): 100%
- Pre-emergence action against AVEFA (Avena fatua [6]): 90%
- Post-emergence action against VERPE in % (Veronica persica [17]): 80%
- Post-emergence action against ABUTH (Abutilon theophrasti [7]; 5 g/ha): 90%
- Post-emergence action against ABUTH (Abutilon theophrasti [7]; 20 g/ha): 90%
- Post-emergence action against DIGSA in % (Digitaria sanguinalis; 5 g/ha): 80%
- Post-emergence action against DIGSA in % (Digitaria sanguinalis; 20 g/ha): 80%
- Pre-emergence action against LOLRI (Lolium rigidum): 80%
- Post-emergence action against ALOMY (Alopecurus myosuroides [8]; 5 g/ha): 80%
- Post-emergence action against ALOMY (Alopecurus myosuroides [8]; 20 g/ha): 90%
- Pre-emergence action against AMARE (Amaranthus retroflexus [9]; 20 g/ha): 100%
- Pre-emergence action against AMARE (Amaranthus retroflexus [9]; 80 g/ha): 100%
- Post-emergence action against AMARE in % (Amaranthus retroflexus [10]; 5 g/ha): 100%
- Post-emergence action against AMARE in % (Amaranthus retroflexus [10]; 20 g/ha): 100%
- Post-emergence action against MATIN in % (Matricaria inodora [11]; 20 g/ha): 90%
- Post-emergence action against SETVI in % (Setaria viridis [12]; 5 g/ha): 80%
- Post-emergence action against SETVI in % (Setaria viridis [12]; 20 g/ha): 90%
- Post-emergence action against AVEFA in % (Avena fatua [18]): 80%
- Pre-emergence action against MATIN (Matricaria inodora [13]; 20 g/ha): 90%
- Pre-emergence action against MATIN (Matricaria inodora [13]; 80 g/ha): 100%
- Post-emergence action against PHBPU in % (Pharbitis purpurea; 5 g/ha): 80%
- Post-emergence action against PHBPU in % (Pharbitis purpurea; 20 g/ha): 80%
- Pre-emergence action against ECHCG (Echinochloa crus-galli [14]): 100%
- Pre-emergence action against SETVI (Setaria viridis [15]): 100%
